Test results reported in publication PMC12472637, “Use of TLC and Computational Methods to Determine Lipophilicity Parameters of Selected Neuroleptics: Comparison of Experimental and Theoretical Studies” (Pharmaceuticals, 2025).

Columns and labels:
[1] = RP-TLC chromatographic parameter of lipophilicity (RMW), Soczewiński–Wachtmeister extrapolation; assay type: physicochemical; set-up: key: RM = log((1−Rf)/Rf), extrapolated via Soczewiński–Wachtmeister equation
Text: As part of the continuation of this study, we attempted to use the experimental, i.e., chromatographic method to determine the lipophilicity parameter of five commercially available neuroleptics: fluphenazine, triflupromazine, trifluoperazine, flupentixol and zuclopenthixol. As described in the Materials and Methods Section, we successfully applied thin-layer chromatography in a reverse-phase system (RP-TLC) and various systems containing chromatographic plates: RP-2F254, RP-8F254 and RP-18F254. […] The chromatographic parameter of lipophilicity RMW obtained under these conditions, using Soczewiński-Wachtmeister's equation, is presented in Table 5. […] Sufficient linearity of these relationships was confirmed by a high correlation coefficient (r), significant p-values, a low standard error of estimate and a high Fisher F-distribution value. […] The content of organic modifier varied from 40% to 90% in 5% increments. Five microliters of each sample solution was spotted as separate spots with a 5 mm width. Plates were developed at ambient temperature (20 ± 2 °C) to a distance of 70 mm in a horizontal chamber ([…], Switzerland) and then visualized under UV light (λ = 254 nm). All measurements were performed in triplicate. The mean value of the retardation factor (Rf) of each compound was used to calculate the RM values:(1) […] The characteristic of the obtained linear plots are given in the Supplementary Materials as Tables S2-S6.

[2] = set-up: method as in earlier work; conditions: logP in n-octanol-water, DrugBank; cited from earlier work
[3] = RP-2F254 plates, 1,4-dioxane–TRIS buffer (pH 7.4)
[4] = RP-2F254 plates, acetone–TRIS buffer (pH 7.4)
[5] = RP-2F254 plates, acetonitrile–TRIS buffer (pH 7.4)
[6] = RP-8F254 plates, 1,4-dioxane–TRIS buffer (pH 7.4)
[7] = RP-8F254 plates, acetone–TRIS buffer (pH 7.4)
[8] = RP-8F254 plates, acetonitrile–TRIS buffer (pH 7.4)
[9] = RP-18F254 plates, 1,4-dioxane–TRIS buffer (pH 7.4)
[10] = RP-18F254 plates, acetone–TRIS buffer (pH 7.4)
[11] = RP-18F254 plates, acetonitrile–TRIS buffer (pH 7.4)

Row | Structure (SMILES) | RMW [1, 3] | RMW [1, 4] | RMW [1, 5] | RMW [1, 6] | RMW [1, 7] | RMW [1, 8] | RMW [1, 9] | RMW [1, 10] | RMW [1, 11] | logPexp [2] | other results
1 | OCCN1CCN(CC/C=C2/c3ccccc3Sc3ccc(C(F)(F)F)cc32)CC1 [Flupentixol, flupentixol] | 2.782 | 2.829 | −0.427 | 2.363 | 2.702 | −1.165 | 2.468 | 2.762 | −1.058 | 4.51 | RMW ([1]; RP-2F254 plates, 1,4-dioxane–TRIS buffer (pH 7.4), listed as flupentixol): 2.782±0.094; RMW ([1]; RP-2F254 plates, acetone–TRIS buffer (pH 7.4), listed as flupentixol): 2.829±0.194; RMW ([1]; RP-2F254 plates, acetonitrile–TRIS buffer (pH 7.4), listed as flupentixol): -0.427±0.153; RMW ([1]; RP-8F254 plates, 1,4-dioxane–TRIS buffer (pH 7.4), listed as flupentixol): 2.363±0.214; RMW ([1]; RP-8F254 plates, acetone–TRIS buffer (pH 7.4), listed as flupentixol): 2.702±0.228; RMW ([1]; RP-8F254 plates, acetonitrile–TRIS buffer (pH 7.4), listed as flupentixol): -1.165±0.108; RMW ([1]; RP-18F254 plates, 1,4-dioxane–TRIS buffer (pH 7.4), listed as flupentixol): 2.468±0.246; RMW ([1]; RP-18F254 plates, acetone–TRIS buffer (pH 7.4), listed as flupentixol): 2.762±0.175; RMW ([1]; RP-18F254 plates, acetonitrile–TRIS buffer (pH 7.4), listed as flupentixol): -1.058±0.077
2 | OCCN1CCN(CCCN2c3ccccc3Sc3ccc(C(F)(F)F)cc32)CC1 [Fluphenazine, fluphenazine] | 2.653 | 2.834 | −0.777 | 2.340 | 2.591 | −1.230 | 2.454 | 2.702 | −0.995 | 4.36 | RMW ([1]; RP-2F254 plates, 1,4-dioxane–TRIS buffer (pH 7.4), listed as fluphenazine): 2.653±0.058; RMW ([1]; RP-2F254 plates, acetone–TRIS buffer (pH 7.4), listed as fluphenazine): 2.834±0.219; RMW ([1]; RP-2F254 plates, acetonitrile–TRIS buffer (pH 7.4), listed as fluphenazine): -0.777±0.074; RMW ([1]; RP-8F254 plates, 1,4-dioxane–TRIS buffer (pH 7.4), listed as fluphenazine): 2.340±0.230; RMW ([1]; RP-8F254 plates, acetone–TRIS buffer (pH 7.4), listed as fluphenazine): 2.591±0.210; RMW ([1]; RP-8F254 plates, acetonitrile–TRIS buffer (pH 7.4), listed as fluphenazine): -1.230±0.164; RMW ([1]; RP-18F254 plates, 1,4-dioxane–TRIS buffer (pH 7.4), listed as fluphenazine): 2.454±0.279; RMW ([1]; RP-18F254 plates, acetone–TRIS buffer (pH 7.4), listed as fluphenazine): 2.702±0.189; RMW ([1]; RP-18F254 plates, acetonitrile–TRIS buffer (pH 7.4), listed as fluphenazine): -0.995±0.098
3 | CN1CCN(CCCN2c3ccccc3Sc3ccc(C(F)(F)F)cc32)CC1 [Trifluoperazine, trifluoperazine] | 3.333 | 3.348 | −0.568 | 2.547 | 2.754 | −1.023 | 2.580 | 2.714 | −0.810 | 5.03 | RMW ([1]; RP-2F254 plates, 1,4-dioxane–TRIS buffer (pH 7.4), listed as trifluoperazine): 3.333±0.328; RMW ([1]; RP-2F254 plates, acetone–TRIS buffer (pH 7.4), listed as trifluoperazine): 3.348±0.250; RMW ([1]; RP-2F254 plates, acetonitrile–TRIS buffer (pH 7.4), listed as trifluoperazine): -0.568±0.088; RMW ([1]; RP-8F254 plates, 1,4-dioxane–TRIS buffer (pH 7.4), listed as trifluoperazine): 2.547±0.277; RMW ([1]; RP-8F254 plates, acetone–TRIS buffer (pH 7.4), listed as trifluoperazine): 2.754±0.209; RMW ([1]; RP-8F254 plates, acetonitrile–TRIS buffer (pH 7.4), listed as trifluoperazine): -1.023±0.082; RMW ([1]; RP-18F254 plates, 1,4-dioxane–TRIS buffer (pH 7.4), listed as trifluoperazine): 2.580±0.271; RMW ([1]; RP-18F254 plates, acetone–TRIS buffer (pH 7.4), listed as trifluoperazine): 2.714±0.200; RMW ([1]; RP-18F254 plates, acetonitrile–TRIS buffer (pH 7.4), listed as trifluoperazine): -0.810±0.074
4 | CN(C)CCCN1c2ccccc2Sc2ccc(C(F)(F)F)cc21 [Triflupromazine, triflupromazine] | 2.890 | 3.046 | −0.405 | 2.153 | 2.690 | −0.334 | 2.342 | 2.718 | −0.361 |  | RMW ([1]; RP-2F254 plates, 1,4-dioxane–TRIS buffer (pH 7.4), listed as triflupromazine): 2.890±0.232; RMW ([1]; RP-2F254 plates, acetone–TRIS buffer (pH 7.4), listed as triflupromazine): 3.046±0.271; RMW ([1]; RP-2F254 plates, acetonitrile–TRIS buffer (pH 7.4), listed as triflupromazine): -0.405±0.166; RMW ([1]; RP-8F254 plates, 1,4-dioxane–TRIS buffer (pH 7.4), listed as triflupromazine): 2.153±0.213; RMW ([1]; RP-8F254 plates, acetone–TRIS buffer (pH 7.4), listed as triflupromazine): 2.690±0.232; RMW ([1]; RP-8F254 plates, acetonitrile–TRIS buffer (pH 7.4), listed as triflupromazine): -0.334±0.019; RMW ([1]; RP-18F254 plates, 1,4-dioxane–TRIS buffer (pH 7.4), listed as triflupromazine): 2.342±0.261; RMW ([1]; RP-18F254 plates, acetone–TRIS buffer (pH 7.4), listed as triflupromazine): 2.718±0.168; RMW ([1]; RP-18F254 plates, acetonitrile–TRIS buffer (pH 7.4), listed as triflupromazine): -0.361±0.084
5 | OCCN1CCN(CC/C=C2/c3ccccc3Sc3ccc(Cl)cc32)CC1 [Zuclopenthixol, zuclopenthixol] | 2.459 | 2.529 | 0.582±0.089 | 1.981 | 2.206 | −1.206 | 2.110 | 2.218 | 2.411 |  | RMW ([1]; RP-2F254 plates, 1,4-dioxane–TRIS buffer (pH 7.4), listed as zuclopenthixol): 2.459±0.130; RMW ([1]; RP-2F254 plates, acetone–TRIS buffer (pH 7.4), listed as zuclopenthixol): 2.529±0.252; RMW ([1]; RP-8F254 plates, 1,4-dioxane–TRIS buffer (pH 7.4), listed as zuclopenthixol): 1.981±0.189; RMW ([1]; RP-8F254 plates, acetone–TRIS buffer (pH 7.4), listed as zuclopenthixol): 2.206±0.207; RMW ([1]; RP-8F254 plates, acetonitrile–TRIS buffer (pH 7.4), listed as zuclopenthixol): -1.206±0.139; RMW ([1]; RP-18F254 plates, 1,4-dioxane–TRIS buffer (pH 7.4), listed as zuclopenthixol): 2.110±0.176; RMW ([1]; RP-18F254 plates, acetone–TRIS buffer (pH 7.4), listed as zuclopenthixol): 2.218±0.238; RMW ([1]; RP-18F254 plates, acetonitrile–TRIS buffer (pH 7.4), listed as zuclopenthixol): 2.411±0.454
